Assay [1] concerns patients with hemiplegia attributed to cerebrovascular disease (stroke) who developed RSD (shoulder-hand syndrome). Briefly: Test of treatment of post-stroke RSD (Reference Example 1). It counts as in vivo, human. The procedure:
EL was administered after the onset of RSD (shoulder-hand syndrome) in the same use and dose as in Example 1 to 11 patients with hemiplegia attributed to cerebrovascular disease (stroke) at Brunnstrom stage III or lower in either the upper limb or a finger on admission, who developed RSD (shoulder-hand syndrome). These patients were classified into a therapeutic administration group. On the other hand, the EL administration group of Example 1 was compared as a control (preventive administration group) with the therapeutic administration group.

Assay [2] deals with patients with hemiplegia attributed to cerebrovascular disease (stroke) at Brunnstrom stage III or lower, not yet developing RSD. Briefly: Test of prevention of onset of post-stroke RSD (Example 1). Format: in vivo, human. The source says: Test subjects were 32 patients with hemiplegia attributed to cerebrovascular disease (stroke) at Brunnstrom stage III or lower in either the upper limb or a finger on admission. Patients already developing RSD (shoulder-hand syndrome) on admission and patients with pain in the shoulder joint or swollen paralyzed limbs were excluded from the test. […] On the other hand, 21 test subjects were classified into a rehabilitation alone group (control group) and compared with the EL administration group. Physical therapy and therapeutic exercise, occupational therapy, and the management of the paralyzed limbs were performed thoroughly in all the cases. […] EL administration was initiated 11 to 59 days after an attack of stroke (25.8 days on average) and continued until 5 months after the attack of stroke. The same observation period was applied to the control group. The test subjects were diagnosed as developing RSD (shoulder-hand syndrome) if they had diffuse pain not localized to the shoulder joint, edema involving skin color changes, skin temperature abnormalities, and range of motion limitations, and the practice of their rehabilitation was restricted. These criteria agreed to Veldman's diagnostic criteria or diagnostic criteria for CRPS-type 1 provided by the International Association for the Study of Pain.
Activities of daily living (ADL) were evaluated on the basis of the Barthel Index (BI) and the range of motion (ROM) of shoulder joint. The movable range of shoulder joint (also referred to as “shoulder ROM”) was regarded as restricted (Shoulder-ROM-restrictions were present.) if either abduction or flexion was restricted in measurement. The test subjects were also examined for sensory impairment, aphasia, and unilateral spatial neglect on admission.
Statistical analysis was conducted with unpaired t-test, Fisher's exact test or Wilcoxon test, and 5% or lower significance level was regarded as being significant.

Assay [3] has as its system RSD triggered and developed by a trauma or surgical invasion. The note with it: literature report; cited from earlier work.
Setting [4] is: therapeutic administration group.
[5] abbreviates: EL preventive administration group, 20 units i.m. once a week, until 5 months after the attack of stroke.
Setting [6] is: preventive administration group.

Take “1-butyric acid-7-(L-2-aminobutyric acid)-26-L-aspartic acid-27-L-valine-29-L-alanine-calcitonin [elcatonin]”: in assay [1] (setting [4]), the “Barthel index, Average ± SE (at completion of administration)” value was determined as 31.8 ± 7.8 and the “Barthel index, Median (at completion of administration)” value worked out at 25. Moreover, the “No RSD, the number of persons (at completion of administration)” value in assay [1] (therapeutic administration group (EL after onset of RSD)) was 0. For the same molecule, the “Incidence of RSD converted to incidence in all patients with hemiplegia attributed to stroke in the facility” value in assay [2] (EL administration group) is recorded as “approximately 1.3%”. Moreover, the “Incidence of RSD (cases that developed RSD)” value in assay [2] (EL preventive administration group, 1 of the 12 cases) amounted to 8.3%. Also, in assay [2] (setting [5]), the “The number of test subjects developing post-stroke RSD: Developed” value was 1 and the “The number of test subjects developing post-stroke RSD: Not developed” value was determined as 11. The “Incidence of RSD when EL administration was initiated within 48 days after stroke” value in assay [2] (administration initiated within 48 days after stroke) is 0%. Also, in assay [2] (setting [6]), the “Barthel index, Average ± SE (at completion of administration)” value was determined as 60.8 ± 9.3; the “Barthel index, Median (at completion of administration)” value was determined as 72.5; the “No RSD, the number of persons (at completion of administration)” value stood at 11.

For `O=C1O[C@H]([C@@H](O)CO)C(O)=C1O` [vitamin C], the “Effect on the initial onset of RSD in subjects having no anamnesis of RSD after a trauma or surgical invasion” value in assay [3] is “preventive effect”.
